From patent publication US7803930B2, “Antisense modulation of apolipoprotein B-expression” (Isis Pharmaceuticals, Inc., priority 2002, dated 2010)

Assays:
[1] = tested on: human apolipoprotein B mRNA; assay: Transgenic mice dosing study (Example 52): human apolipoprotein B mRNA in liver; type: in vivo, human transgene in mouse; settings: for % Inhibition, human apolipoprotein B mRNA: liver, 12 weeks
Experimental: (§1) A long-term study of inhibition of human apolipoprotein B by ISIS 301012 in C57BL/6NTac-TgN(APOB100) mice (Taconic, Germantown, N.Y.) was conducted for a 3 month period. Mice were dosed intraperitoneally twice a week with 10 or 25 mg/kg ISIS 301012 (SEQ ID No: 247) for 12 weeks. Saline-injected animals served as controls. Each treatment group comprised 4 animals.
The study was terminated forty eight hours after the final injections in the eighth week of treatment, when animals were sacrificed and evaluated for target mRNA levels in liver, apolipoprotein B protein levels in liver and serum cholesterol and liver enzyme levels. In addition, the expression of endogenous mouse apolipoprotein B levels in liver was measured to evaluate any effects of ISIS 301012 on mouse apolipoprotein B mRNA expression.
Human and mouse apolipoprotein B mRNA levels in livers of animals treated for 12 weeks were measured by real-time PCR as described herein. Each result represents the average of data from 4 animals.

[2] = Long-term study in lean Cynomolgous monkeys (Example 64): serum lipids by nuclear magnetic resonance spectroscopy; type: in vivo, Cynomolgous monkey; settings: one month
Experimental: […] Saline-treated animals serve as controls. Each treatment group includes 2 to 3 animals of each sex.
The results from the one month interval of the long term treatment are shown in Table 50 and are normalized to saline-treated animals for mRNA and to untreated baseline values for lipid levels. Total cholesterol, LDL-cholesterol, HDL-cholesterol, LDL particle concentration and triglyceride levels in serum were measured by nuclear magnetic resonance spectroscopy by Liposcience (Raleigh, N.C.). Additionally, the concentration of intact oligonucleotide in liver was measured by capillary gel electrophoresis and is presented as micrograms of oligonucleotide per gram of liver tissue. Each result represents the average of data from 4 animals (2 males and 2 females).

[3] = tested on: human apolipoprotein B protein; assay: Transgenic mice dosing study (Example 52): serum human apolipoprotein B protein by ELISA; type: in vivo, human transgene in mouse
Experimental: as §1
After 2, 4, 6, 8 and 12 weeks of treatment, serum samples were collected for the purpose of measuring human apolipoprotein B protein. Serum protein was quantitated using an ELISA kit specific for human apolipoprotein B (ALerCHEK Inc., Portland, Me.). The data are shown in Table 30 and each result represents the average of 4 animals. Data are normalized to saline-treated control animals.

[4] = Lean mice, 6 weeks (Example 66): serum lipids and liver enzymes; type: in vivo, mouse; settings: for HDL-cholesterol / LDL-cholesterol / Liver Enzymes ALT / Liver Enzymes AST / Total cholesterol / Triglycerides: serum
Experimental: The accumulation of lipids in liver tissue was also evaluated in lean mice. Male […] mice (Charles River Laboratories (Wilmington, Mass.) at 6 to 7 weeks of age were maintained on a standard rodent diet and were treated twice weekly with intraperitoneal injections of 25 or 50 mg/kg 147764 (SEQ ID NO: 109) or 147483 (SEQ ID NO: 79) for 6 weeks. Saline treated animals served as controls. Each treatment group was comprised of 4 animals. Animals were sacrificed after the 6 week treatment period, at which point liver tissue and serum were collected.
Total cholesterol, LDL-cholesterol, HDL-cholesterol and triglycerides in serum were measured by routine clinical analysis using an Olympus Clinical Analyzer (Olympus America Inc., Melville, N.Y.). The liver enzymes ALT and […] in serum were also measured using the Olympus Clinical Analyzer.

[5] = Steatosis following long-term treatment (6, 12 and 20 weeks) in high-fat fed mice: histology and liver triglyceride content; type: in vivo, mouse; settings: high fat fed C57Bl/6 mice, 25 mg/kg i.p. twice weekly
Experimental: Quantitation of liver triglyceride content is also used to assess steatosis. Tissue triglyceride levels are measured using a Triglyceride GPO Assay (Sigma-Aldrich, St. Louis, Mo.).
Male C57Bl/6 mice were treated with twice weekly intraperitoneal injections of 25 mg/kg ISIS 147764 (SEQ ID NO: 109) or 25 mg/kg ISIS 141923 (SEQ ID NO: 858) for 6, 12 and 20 weeks. Saline treated animals served as controls. Each treatment group contained 4 animals. Animals were sacrificed at 6, 12 and 20 weeks and liver tissue was procured for histological analysis and measurement of tissue triglyeride content.

[6] = tested on: mouse apolipoprotein B protein; assay: High fat fed C57BL/6 mice, 6 week timecourse: liver apolipoprotein B protein, immunoblot; type: in vivo; settings: 5, 25, 50 mg/kg, six weeks
From the text: Liver protein samples collected at the end of the treatment period were subjected to immunoblot analysis using an antibody directed to mouse apolipoprotein B protein (Gladstone Institute, San Francisco, Calif.).

ISIS 301012: SEQ ID NO: 247, antisense oligonucleotide targeted to human apolipoprotein B (antisense GCCTCAGTCTGCTTCGCACC; chemistry not given here)
reduction of human apolipoprotein B mRNA in liver ([1]; 12 weeks of treatment): ≤ 75%
% Inhibition, human apolipoprotein B mRNA ([1]; 10 mg/kg i.p. twice a week): 65%
% Inhibition, human apolipoprotein B mRNA ([1]; 25 mg/kg i.p. twice a week): 75%
HDL-cholesterol, % change normalized to untreated baseline value ([2]; intravenous 2 mg/kg): −23%
LDL Particle concentration, % change normalized to untreated baseline value ([2]; intravenous 2 mg/kg): +8%
LDL-cholesterol, % change normalized to untreated baseline value ([2]; intravenous 2 mg/kg): +15%
LDL/HDL, % change normalized to untreated baseline value ([2]; intravenous 2 mg/kg): +94%
Total cholesterol, % change normalized to untreated baseline value ([2]; intravenous 2 mg/kg): −6%
Total cholesterol/HDL, % change normalized to untreated baseline value ([2]; intravenous 2 mg/kg): +44%
Triglyceride, % change normalized to untreated baseline value ([2]; intravenous 2 mg/kg): +26%
HDL-cholesterol, % change normalized to untreated baseline value ([2]; intravenous 4 mg/kg): −15%
LDL Particle concentration, % change normalized to untreated baseline value ([2]; intravenous 4 mg/kg): +8%
LDL-cholesterol, % change normalized to untreated baseline value ([2]; intravenous 4 mg/kg): +9%
LDL/HDL, % change normalized to untreated baseline value ([2]; intravenous 4 mg/kg): +38%
Total cholesterol, % change normalized to untreated baseline value ([2]; intravenous 4 mg/kg): −2%
Total cholesterol/HDL, % change normalized to untreated baseline value ([2]; intravenous 4 mg/kg): +22%
Triglyceride, % change normalized to untreated baseline value ([2]; intravenous 4 mg/kg): +32%
HDL-cholesterol, % change normalized to untreated baseline value ([2]; intravenous 12 mg/kg): −8%
LDL Particle concentration, % change normalized to untreated baseline value ([2]; intravenous 12 mg/kg): −11%
LDL-cholesterol, % change normalized to untreated baseline value ([2]; intravenous 12 mg/kg): +3%
LDL/HDL, % change normalized to untreated baseline value ([2]; intravenous 12 mg/kg): +44%
Total cholesterol, % change normalized to untreated baseline value ([2]; intravenous 12 mg/kg): −2%
Total cholesterol/HDL, % change normalized to untreated baseline value ([2]; intravenous 12 mg/kg): +21%
Triglyceride, % change normalized to untreated baseline value ([2]; intravenous 12 mg/kg): +15%
HDL-cholesterol, % change normalized to untreated baseline value ([2]; subcutaneous 3.5 mg/kg): +13%
LDL Particle concentration, % change normalized to untreated baseline value ([2]; subcutaneous 3.5 mg/kg): −14%
LDL-cholesterol, % change normalized to untreated baseline value ([2]; subcutaneous 3.5 mg/kg): −4%
LDL/HDL, % change normalized to untreated baseline value ([2]; subcutaneous 3.5 mg/kg): −15%
Total cholesterol, % change normalized to untreated baseline value ([2]; subcutaneous 3.5 mg/kg): +5%
Total cholesterol/HDL, % change normalized to untreated baseline value ([2]; subcutaneous 3.5 mg/kg): −7%
Triglyceride, % change normalized to untreated baseline value ([2]; subcutaneous 3.5 mg/kg): +1%
HDL-cholesterol, % change normalized to untreated baseline value ([2]; subcutaneous 20 mg/kg): +5%
LDL Particle concentration, % change normalized to untreated baseline value ([2]; subcutaneous 20 mg/kg): −21%
LDL-cholesterol, % change normalized to untreated baseline value ([2]; subcutaneous 20 mg/kg): −16%
LDL/HDL, % change normalized to untreated baseline value ([2]; subcutaneous 20 mg/kg): −19%
Total cholesterol, % change normalized to untreated baseline value ([2]; subcutaneous 20 mg/kg): −5%
Total cholesterol/HDL, % change normalized to untreated baseline value ([2]; subcutaneous 20 mg/kg): −10%
Triglyceride, % change normalized to untreated baseline value ([2]; subcutaneous 20 mg/kg): −3%
% Reduction in human apolipoprotein B protein in serum ([3]; 10 mg/kg i.p. twice a week, 2 weeks): 76%
% Reduction in human apolipoprotein B protein in serum ([3]; 10 mg/kg i.p. twice a week, 4 weeks): 78%
% Reduction in human apolipoprotein B protein in serum ([3]; 10 mg/kg i.p. twice a week, 6 weeks): 73%
% Reduction in human apolipoprotein B protein in serum ([3]; 10 mg/kg i.p. twice a week, 8 weeks): 42%
% Reduction in human apolipoprotein B protein in serum ([3]; 10 mg/kg i.p. twice a week, 12 weeks): 85%
% Reduction in human apolipoprotein B protein in serum ([3]; 25 mg/kg i.p. twice a week, 2 weeks): 80%
% Reduction in human apolipoprotein B protein in serum ([3]; 25 mg/kg i.p. twice a week, 4 weeks): 87%
% Reduction in human apolipoprotein B protein in serum ([3]; 25 mg/kg i.p. twice a week, 6 weeks): 86%
% Reduction in human apolipoprotein B protein in serum ([3]; 25 mg/kg i.p. twice a week, 8 weeks): 47%
% Reduction in human apolipoprotein B protein in serum ([3]; 25 mg/kg i.p. twice a week, 12 weeks): 79%
lowering of human apolipoprotein B protein in serum (ELISA) ([3]; 10 or 25 mg/kg i.p. twice a week, 2, 4, 6 or 12 weeks): approximately 80%

GTCCCTGAAGATGTCAATGC (2'-MOE gapmer, further chemistry not given here) [ISIS 147764]
serum lipids relative to saline-treated control animals ([4]; 25 or 50 mg/kg i.p. twice weekly): lowers serum lipids
HDL-cholesterol ([4]; 25 mg/kg i.p. twice weekly): 79 mg/dL
LDL-cholesterol ([4]; 25 mg/kg i.p. twice weekly): 29 mg/dL
Liver Enzymes ALT ([4]; 25 mg/kg i.p. twice weekly): 47 IU/L
Liver Enzymes AST ([4]; 25 mg/kg i.p. twice weekly): 81 IU/L
Total cholesterol ([4]; 25 mg/kg i.p. twice weekly): 114 mg/dL
Triglycerides ([4]; 25 mg/kg i.p. twice weekly): 80 mg/dL
HDL-cholesterol ([4]; 50 mg/kg i.p. twice weekly): 38 mg/dL
LDL-cholesterol ([4]; 50 mg/kg i.p. twice weekly): 18 mg/dL
Liver Enzymes ALT ([4]; 50 mg/kg i.p. twice weekly): 48 IU/L
Liver Enzymes AST ([4]; 50 mg/kg i.p. twice weekly): 101 IU/L
Total cholesterol ([4]; 50 mg/kg i.p. twice weekly): 57 mg/dL
Triglycerides ([4]; 50 mg/kg i.p. twice weekly): 30 mg/dL
liver tissue triglyceride content vs saline treated animals ([5]; 6, 12 and 20 weeks): no significant differences
steatosis vs saline control animals (histology) ([5]; 12 and 20 weeks): reduced
apolipoprotein B protein expression in liver (immunoblot) [6]: decreases apolipoprotein B protein expression in liver in a dose-dependent manner
